Measurements reported in patent US12391669B2, “Substituted pyrimidines as IRE1 kinase inhibitors” (THE REGENTS OF THE UNIVERSITY OF CALIFORNIA, priority 2018, dated 2025).
Where two headings read alike, the source gives them in different places.

Tests used:
Assay type in all cases: biochemical
[1] = biological target: IRE1α kinase (Homo sapiens (Human), UniProt O75460); test: IRE1α kinase IC50
[2] = biological target: IRE1β kinase (Homo sapiens (Human), UniProt Q76MJ5); test: IRE1β kinase IC50
[3] = biological target: IRE1α RNase (Homo sapiens (Human), UniProt O75460); test: IRE1α RNase IC50
Chain of IRE1α RNase (O75460 19-977): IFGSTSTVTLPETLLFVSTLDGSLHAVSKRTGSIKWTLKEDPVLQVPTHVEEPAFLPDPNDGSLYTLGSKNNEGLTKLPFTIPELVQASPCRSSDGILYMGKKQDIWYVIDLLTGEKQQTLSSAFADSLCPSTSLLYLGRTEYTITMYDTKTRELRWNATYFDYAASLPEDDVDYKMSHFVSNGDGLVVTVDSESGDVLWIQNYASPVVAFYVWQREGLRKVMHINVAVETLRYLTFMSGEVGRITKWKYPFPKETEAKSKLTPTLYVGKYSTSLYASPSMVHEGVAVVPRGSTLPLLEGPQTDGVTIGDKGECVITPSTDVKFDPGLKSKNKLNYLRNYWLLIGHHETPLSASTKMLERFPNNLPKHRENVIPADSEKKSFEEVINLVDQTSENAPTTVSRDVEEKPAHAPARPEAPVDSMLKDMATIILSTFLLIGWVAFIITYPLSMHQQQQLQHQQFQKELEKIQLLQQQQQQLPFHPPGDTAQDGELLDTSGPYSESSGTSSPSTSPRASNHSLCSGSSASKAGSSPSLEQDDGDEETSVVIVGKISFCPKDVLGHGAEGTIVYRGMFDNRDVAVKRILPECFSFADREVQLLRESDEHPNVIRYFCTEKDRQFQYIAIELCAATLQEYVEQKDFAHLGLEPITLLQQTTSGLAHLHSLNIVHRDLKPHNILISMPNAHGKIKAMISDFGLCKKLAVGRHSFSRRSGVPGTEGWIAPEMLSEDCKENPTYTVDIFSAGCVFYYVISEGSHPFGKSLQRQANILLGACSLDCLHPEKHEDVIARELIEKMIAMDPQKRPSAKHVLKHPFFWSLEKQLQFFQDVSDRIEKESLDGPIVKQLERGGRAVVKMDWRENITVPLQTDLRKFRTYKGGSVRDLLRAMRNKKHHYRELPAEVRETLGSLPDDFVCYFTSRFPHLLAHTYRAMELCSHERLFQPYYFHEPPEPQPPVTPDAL

Chain of IRE1α kinase (O75460 19-977): as above
Chain of IRE1β kinase (Q76MJ5 35-926): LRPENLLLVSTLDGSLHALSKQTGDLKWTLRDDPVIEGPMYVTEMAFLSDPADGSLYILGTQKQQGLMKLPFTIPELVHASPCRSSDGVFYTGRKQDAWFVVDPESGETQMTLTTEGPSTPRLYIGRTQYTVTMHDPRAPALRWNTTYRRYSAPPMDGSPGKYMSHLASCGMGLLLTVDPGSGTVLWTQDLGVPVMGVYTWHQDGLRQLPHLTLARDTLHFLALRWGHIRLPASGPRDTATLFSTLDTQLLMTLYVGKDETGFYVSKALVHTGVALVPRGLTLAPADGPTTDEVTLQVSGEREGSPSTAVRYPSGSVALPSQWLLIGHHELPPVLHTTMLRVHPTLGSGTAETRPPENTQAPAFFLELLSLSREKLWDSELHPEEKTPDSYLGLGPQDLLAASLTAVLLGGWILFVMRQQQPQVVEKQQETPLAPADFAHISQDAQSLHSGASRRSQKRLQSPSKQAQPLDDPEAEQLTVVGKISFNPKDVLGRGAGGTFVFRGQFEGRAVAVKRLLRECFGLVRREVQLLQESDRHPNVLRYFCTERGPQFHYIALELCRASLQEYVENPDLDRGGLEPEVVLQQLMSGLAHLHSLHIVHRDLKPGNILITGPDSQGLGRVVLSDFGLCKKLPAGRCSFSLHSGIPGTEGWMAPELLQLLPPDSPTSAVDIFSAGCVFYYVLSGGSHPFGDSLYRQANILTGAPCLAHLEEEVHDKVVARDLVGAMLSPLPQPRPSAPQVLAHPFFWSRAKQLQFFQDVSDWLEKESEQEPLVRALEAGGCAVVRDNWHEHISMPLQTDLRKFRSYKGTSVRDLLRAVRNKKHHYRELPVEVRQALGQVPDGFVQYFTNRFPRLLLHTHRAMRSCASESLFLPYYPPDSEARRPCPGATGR

O=S(=O)(Nc1ccc(Oc2ncsc2-c2ccnc(N[C@H]3CCCNC3)n2)cc1F)c1ccccc1Cl [compound 25]
IC50 [1]: 117 nM | IC50 [2]: 32 nM | IC50 ([3]; (HF)): 46 nM

O=C(NCc1ccccc1Cl)c1cccc(Oc2ncsc2-c2ccnc(N[C@H]3CCCNC3)n2)c1 [compound 51, (S)—N-(2-chlorobenzyl)-3-(5-(2-(piperidin-3-ylamino)pyrimidin-4-yl)thiazol-4-yloxy)benzamide]
IC50 ([1]; (HF)): 524 nM

c1cc(Cc2nc3ccccc3[nH]2)cc(Oc2ncsc2-c2ccnc(N[C@H]3CCCNC3)n2)c1 [compound 35, (S)-4-(4-(3-((1H-benzo[d]imidazol-2-yl)methyl)phenoxy)thiazol-5-yl)-N-(piperidin-3-yl)pyrimidin-2-amine]
IC50 ([3]; (HF)): 153 nM

O=S(=O)(Nc1ccc(Oc2nccnc2-c2ccnc(N[C@H]3CCCNC3)n2)c2ccccc12)c1ccccc1Cl [compound 84, (S)-2-chloro-N-(4-(3-(2-(piperidin-3-ylamino)pyrimidin-4-yl)pyrazin-2-yloxy)naphthalen-1-yl)benzenesulfonamide]
IC50 [1]: 296 nM | IC50 [2]: 1980 nM

Cc1nc(Oc2ccc(NS(=O)(=O)c3ccccc3Cl)c3ccccc23)c(-c2ccnc(N[C@H]3CCCNC3)n2)s1 [compound 67, (S)-2-chloro-N-(4-(2-methyl-5-(2-(piperidin-3-ylamino)pyrimidin-4-yl)thiazol-4-yloxy)naphthalen-1-yl)benzenesulfonamide]
IC50 ([1]; (HF)): 63 nM | IC50 ([3]; (HF)): 19 nM

O=S(=O)(Cc1ccccc1Cl)Nc1ccc(Oc2ncsc2-c2ccnc(N[C@H]3CCCNC3)n2)cc1F [compound 11, (S)-1-(2-chlorophenyl)-N-(2-fluoro-4-(5-(2-(piperidin-3-ylamino)pyrimidin-4-yl)thiazol-4-yloxy)phenyl)methane sulfonamide]
IC50 ([1]; (HF)): 119 nM | IC50 ([3]; (HF)): 24 nM

O=S(=O)(Nc1ccc(Oc2nccnc2-c2ccnc(N[C@H]3CCCNC3)n2)cc1F)c1ccccc1Cl [compound 77, (S)-2-chloro-N-(2-fluoro-4-(3-(2-(piperidin-3-ylamino)pyrimidin-4-yl)pyrazin-2-yloxy)phenyl)benzenesulfonamide]
IC50 [1]: 6200 nM | IC50 [2]: 2100 nM

c1ccc2[nH]c(Cc3ccc(Oc4ncsc4-c4ccnc(N[C@H]5CCCNC5)n4)cc3)nc2c1 [compound 30, (S)-4-(4-(4-((1H-benzo[d]imidazol-2-yl)methyl)phenoxy)thiazol-5-yl)-N-(piperidin-3-yl)pyrimidin-2-amine]
IC50 [1]: 439 nM | IC50 [2]: 8400 nM | IC50 [3]: 118 nM

O=S(=O)(Nc1cccc2c(Oc3ncsc3-c3ccnc(N[C@H]4CCCNC4)n3)cccc12)c1ccccc1Cl [compound 47, (S)-2-chloro-N-(5-(5-(2-(piperidin-3-ylamino)pyrimidin-4-yl)thiazol-4-yloxy)naphthalen-1-yl)benzenesulfonamide]
IC50 [1]: 10 nM | IC50 [2]: 181 nM | IC50 ([3]; (HF)): 8.3 nM

O=S(=O)(NCc1cccc(Oc2ncsc2-c2ccnc(N[C@H]3CCCNC3)n2)c1)c1ccccc1Cl [compound 43, (S)-2-chloro-N-(3-(5-(2-(piperidin-3-ylamino)pyrimidin-4-yl)thiazol-4-yloxy)benzyl)benzenesulfonamide]
IC50 ([1]; (HF)): 1600 nM

O=S(=O)(Cc1ccccc1Cl)Nc1ccc(Oc2nccnc2-c2ccnc(N[C@H]3CCCNC3)n2)cc1F [compound 73, (S)-1-(2-chlorophenyl)-N-(2-fluoro-4-(3-(2-(piperidin-3-ylamino)pyrimidin-4-yl)pyrazin-2-yloxy)phenyl) methane sulfonamide]
IC50 [1]: 961 nM | IC50 [2]: 1570 nM

Cc1ccc(C(=O)N(C)Cc2ccccc2Cl)cc1Oc1ncsc1-c1ccnc(N[C@H]2CCCNC2)n1 [compound 55, (S)—N-(2-chlorobenzyl)-N,4-dimethyl-3-(5-(2-(piperidin-3-ylamino)pyrimidin-4-yl)thiazol-4-yloxy)benzamide]
IC50 ([1]; (HF)): 3180 nM

Cc1ccc(C(=O)Nc2ccccc2Cl)cc1Oc1ncsc1-c1ccnc(N[C@H]2CCCNC2)n1 [compound 16, (S)—N-(2-chlorophenyl)-4-methyl-3-(5-(2-(piperidin-3-ylamino)pyrimidin-4-yl)thiazol-4-yloxy)benzamide]
IC50 ([1]; (HF)): 307 nM | IC50 ([1]; (RB)): 228 nM | IC50 [2]: > 10000 nM

Cc1cc(NS(=O)(=O)c2ccccc2Cl)ccc1Oc1ncsc1-c1ccnc(N[C@H]2CCCNC2)n1 [compound 39]
IC50 ([1]; (HF)): 1140 nM

Cc1ccc2c(NS(=O)(=O)c3ccccc3Cl)cccc2c1Oc1nccnc1-c1ccnc(N[C@H]2CCCNC2)n1 [compound 96]
IC50 [1]: 98 nM | IC50 [2]: 120 nM | IC50 ([3]; (HF)): 117 nM

Cc1ccc(C(=O)NCc2ccccc2Cl)cc1Oc1ncsc1-c1ccnc(N[C@H]2CCCNC2)n1 [compound 20, (S)—N-(2-chlorobenzyl)-4-methyl-3-(5-(2-(piperidin-3-ylamino)pyrimidin-4-yl)thiazol-4-yloxy) benzamide]
IC50 ([1]; (HF)): 55 nM | IRE1α RNase IC50 ([3]; result in words, pIRE1α): No inhibition of pIRE1α

c1ccc2[nH]c(Cc3ccc(Oc4nccnc4-c4ccnc(N[C@H]5CCCNC5)n4)cc3)nc2c1 [compound 88, (S)-4-(3-(4-((1H-benzo[d]imidazol-2-yl)methyl)phenoxy)pyrazin-2-yl)-N-(piperidin-3-yl)pyrimidin-2-amine]
IC50 [1]: 7300 nM | IC50 [2]: > 10000 nM
